Measurements taken from PubChem BioAssay (NCI).
Values joined by “and” are separate entries in the source; they are usually repeats but may differ in a detail not shown here. Identical values can stand only once.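 Protocol summary: plate cells (96-well), add compound at 5 concentrations, incubate 48 h, interpolate endpoints linearly. GI50 = concentration required for 50% inhibition of growth. The concentration for full growth arrest is given as TGI.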

Legend:
Assay in all cases: inhibition of tumour cell growth, NCI panel, 48 h
SN12C renal = system: SN12C renal
SK-MEL-28 melanoma = system: SK-MEL-28 melanoma
HS 578T breast = system: HS 578T breast
CCRF-CEM leukemia = system: CCRF-CEM leukemia
NCI-H522 lung = system: NCI-H522 lung
MCF7 breast = system: MCF7 breast
M14 melanoma = system: M14 melanoma
NCI-H226 lung = system: NCI-H226 lung
SF-295 CNS = system: SF-295 CNS
T-47D breast = system: T-47D breast

Nc1cc2[nH]cnc2c(=O)[nH]1
TGI (SN12C renal): > 300 µM | TGI (SK-MEL-28 melanoma): > 300 µM | TGI (HS 578T breast): > 300 µM | TGI (CCRF-CEM leukemia): > 300 µM | TGI (NCI-H522 lung): > 215 µM | TGI (MCF7 breast): > 300 µM | TGI (M14 melanoma): > 300 µM | TGI (NCI-H226 lung): > 212 µM | TGI (SF-295 CNS): > 300 µM | TGI (T-47D breast): > 300 µM

C/C(=C(/c1ccc(O)cc1)c1ccc(Cl)cc1)c1ccccc1
GI50 (SN12C renal): 0.466 µM | TGI (SN12C renal): 0.977 µM | GI50 (SK-MEL-28 melanoma): 0.685 µM | TGI (SK-MEL-28 melanoma): 2.18 µM | GI50 (HS 578T breast): 0.6 µM | TGI (HS 578T breast): 1.67 µM | GI50 (CCRF-CEM leukemia): 0.764 µM | TGI (CCRF-CEM leukemia): 2.87 µM | GI50 (NCI-H522 lung): 0.739 µM | TGI (NCI-H522 lung): 2.8 µM | GI50 (MCF7 breast): 0.767 µM | TGI (MCF7 breast): 2.07 µM | GI50 (M14 melanoma): 0.654 µM | TGI (M14 melanoma): 1.93 µM | GI50 (NCI-H226 lung): 2.75 µM | TGI (NCI-H226 lung): 7.9 µM | GI50 (SF-295 CNS): 0.603 µM | TGI (SF-295 CNS): 1.5 µM | GI50 (T-47D breast): 0.762 µM | TGI (T-47D breast): 3.22 µM

CC(C)(C)n1cc(-c2ccnc(NCCCNS(=O)(=O)c3ccc(Br)cc3)c2)c(-c2cccc(O)c2)n1
GI50 (SN12C renal): 1.61 µM | TGI (SN12C renal): 3.01 µM | GI50 (SK-MEL-28 melanoma): 1.79 µM | TGI (SK-MEL-28 melanoma): 3.36 µM | GI50 (HS 578T breast): 2.24 µM | TGI (HS 578T breast): 5.53 µM | GI50 (CCRF-CEM leukemia): 2.26 µM | TGI (CCRF-CEM leukemia): > 100 µM | GI50 (NCI-H522 lung): 2.13 µM | TGI (NCI-H522 lung): 4.55 µM | GI50 (MCF7 breast): 1.88 µM | TGI (MCF7 breast): 3.98 µM | GI50 (M14 melanoma): 1.78 µM | TGI (M14 melanoma): 3.29 µM | GI50 (NCI-H226 lung): 2.31 µM | TGI (NCI-H226 lung): 5.59 µM | GI50 (SF-295 CNS): 1.71 µM | TGI (SF-295 CNS): 3.25 µM | GI50 (T-47D breast): 2.48 µM | TGI (T-47D breast): 8.12 µM

Oc1c(Cl)cc(Cl)cc1Sc1cc(Cl)cc(Cl)c1O
GI50 (SN12C renal): 3.13 µM and 3.14 µM | TGI (SN12C renal): 13 µM and 11.4 µM | GI50 (SK-MEL-28 melanoma): 7.01 µM and 4 µM | TGI (SK-MEL-28 melanoma): 21 µM and 14.5 µM | GI50 (HS 578T breast): 2.47 µM and 2.32 µM | TGI (HS 578T breast): 9.48 µM and 8.31 µM | GI50 (CCRF-CEM leukemia): 4.32 µM and 2.83 µM | TGI (CCRF-CEM leukemia): 23.4 µM and 25 µM | GI50 (NCI-H522 lung): 2.49 µM | TGI (NCI-H522 lung): 7.03 µM | GI50 (MCF7 breast): 3.06 µM and 2.88 µM | TGI (MCF7 breast): 10.5 µM and 10.2 µM | GI50 (M14 melanoma): 3.88 µM and 4.02 µM | TGI (M14 melanoma): 15.3 µM and 14.5 µM | GI50 (NCI-H226 lung): 3.1 µM and 2.26 µM | TGI (NCI-H226 lung): 15 µM and 6.76 µM | GI50 (SF-295 CNS): 2.33 µM and 2.34 µM | TGI (SF-295 CNS): 6.47 µM and 6.51 µM | GI50 (T-47D breast): 3.23 µM and 2.45 µM | TGI (T-47D breast): 18 µM and 7.78 µM

COC(=O)C(=O)C(C(=O)C(N)=O)c1nc2ccc(C(=O)c3ccccc3)cc2[nH]c1=O (stereo not given)
TGI (SN12C renal): > 100 µM | TGI (SK-MEL-28 melanoma): > 100 µM | TGI (HS 578T breast): > 100 µM | TGI (CCRF-CEM leukemia): > 100 µM | TGI (NCI-H522 lung): > 100 µM | TGI (MCF7 breast): > 100 µM | TGI (M14 melanoma): > 100 µM | TGI (NCI-H226 lung): > 100 µM | TGI (SF-295 CNS): > 100 µM | TGI (T-47D breast): > 100 µM

CCCCCCNC(=O)Oc1ccc(/C(=C(/C)Cc2ccc(OC)cc2)c2ccc(OCCN(C)C)cc2)cc1
GI50 (SN12C renal): 4.84 µM | TGI (SN12C renal): 9.44 µM | GI50 (SK-MEL-28 melanoma): 3.88 µM | TGI (SK-MEL-28 melanoma): 8.06 µM | GI50 (HS 578T breast): 5.87 µM | TGI (HS 578T breast): 12.3 µM | GI50 (CCRF-CEM leukemia): 1.35 µM | TGI (CCRF-CEM leukemia): 5.37 µM | GI50 (NCI-H522 lung): 5.61 µM | TGI (NCI-H522 lung): 10.6 µM | GI50 (MCF7 breast): 1.29 µM | TGI (MCF7 breast): 6.98 µM | GI50 (M14 melanoma): 6.18 µM | TGI (M14 melanoma): 11.5 µM | GI50 (NCI-H226 lung): 6.18 µM | TGI (NCI-H226 lung): 11.9 µM | GI50 (SF-295 CNS): 5.2 µM | TGI (SF-295 CNS): 9.82 µM | GI50 (T-47D breast): 1.41 µM | TGI (T-47D breast): 7.12 µM

COc1ccc([C@@H](O)c2cc(-c3ncnc4cc(N5CCOCC5)ccc34)c(F)cc2Cl)nn1
GI50 (SN12C renal): 2.45 µM | TGI (SN12C renal): > 100 µM | GI50 (SK-MEL-28 melanoma): 2.07 µM | TGI (SK-MEL-28 melanoma): 38.1 µM | GI50 (HS 578T breast): 0.75 µM | TGI (HS 578T breast): 15.3 µM | GI50 (CCRF-CEM leukemia): 3.5 µM | TGI (CCRF-CEM leukemia): 26.7 µM | GI50 (NCI-H522 lung): 3.31 µM | TGI (NCI-H522 lung): 22.3 µM | GI50 (MCF7 breast): 0.592 µM | TGI (MCF7 breast): 15.7 µM | GI50 (M14 melanoma): 4.91 µM | TGI (M14 melanoma): 28.5 µM | GI50 (NCI-H226 lung): 3.82 µM | TGI (NCI-H226 lung): 60.4 µM | GI50 (SF-295 CNS): 1.48 µM | TGI (SF-295 CNS): 25.8 µM | GI50 (T-47D breast): 0.228 µM | TGI (T-47D breast): 1.44 µM
